In patent US11541050B2, “Pyrimidine derivatives for the treatment of viral infections” (JANSSEN SCIENCES IRELAND UC, priority 2011, dated 2023):

Tests used:
[1] = test system: HCV replicon in Huh-7 luc/neo cells; assay: Suppression of HCV replicon replication by conditioned media from compound-treated PBMC; assay type: cell-based, HCV type 1 b; conditions: Hepatitis C virus; conditioned media from compound-treated PBMC on Huh-7 luc/neo replicon cells (compounds 74 onward); read-out: PBMC HUH-7 EC50
Outline: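 Human PBMC (≥2 donors, RPMI + 10% human AB serum, 2×10^5 cells/well) incubated overnight with compounds; supernatant transferred onto Huh-7 luc/neo HCV 1b replicon cells. After 24 h, replication read as luciferase activity. Recombinant interferon α-2a served as standard.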

[2] = molecular target: T1, human TLR8 (wild type sequence) (Homo sapiens, UniProt Q9NR97); assay: TLR8 cellular NFκB-luc reporter assay, wild type TLR8; assay type: cell-based; parameters: unit not given here; conditions: lowest effective concentration, wild type TLR8 (compounds 74 onward)
T1 construct: expressed in transfected cells; host or cells: HEK293
T1 sequence (Q9NR97 27-1041): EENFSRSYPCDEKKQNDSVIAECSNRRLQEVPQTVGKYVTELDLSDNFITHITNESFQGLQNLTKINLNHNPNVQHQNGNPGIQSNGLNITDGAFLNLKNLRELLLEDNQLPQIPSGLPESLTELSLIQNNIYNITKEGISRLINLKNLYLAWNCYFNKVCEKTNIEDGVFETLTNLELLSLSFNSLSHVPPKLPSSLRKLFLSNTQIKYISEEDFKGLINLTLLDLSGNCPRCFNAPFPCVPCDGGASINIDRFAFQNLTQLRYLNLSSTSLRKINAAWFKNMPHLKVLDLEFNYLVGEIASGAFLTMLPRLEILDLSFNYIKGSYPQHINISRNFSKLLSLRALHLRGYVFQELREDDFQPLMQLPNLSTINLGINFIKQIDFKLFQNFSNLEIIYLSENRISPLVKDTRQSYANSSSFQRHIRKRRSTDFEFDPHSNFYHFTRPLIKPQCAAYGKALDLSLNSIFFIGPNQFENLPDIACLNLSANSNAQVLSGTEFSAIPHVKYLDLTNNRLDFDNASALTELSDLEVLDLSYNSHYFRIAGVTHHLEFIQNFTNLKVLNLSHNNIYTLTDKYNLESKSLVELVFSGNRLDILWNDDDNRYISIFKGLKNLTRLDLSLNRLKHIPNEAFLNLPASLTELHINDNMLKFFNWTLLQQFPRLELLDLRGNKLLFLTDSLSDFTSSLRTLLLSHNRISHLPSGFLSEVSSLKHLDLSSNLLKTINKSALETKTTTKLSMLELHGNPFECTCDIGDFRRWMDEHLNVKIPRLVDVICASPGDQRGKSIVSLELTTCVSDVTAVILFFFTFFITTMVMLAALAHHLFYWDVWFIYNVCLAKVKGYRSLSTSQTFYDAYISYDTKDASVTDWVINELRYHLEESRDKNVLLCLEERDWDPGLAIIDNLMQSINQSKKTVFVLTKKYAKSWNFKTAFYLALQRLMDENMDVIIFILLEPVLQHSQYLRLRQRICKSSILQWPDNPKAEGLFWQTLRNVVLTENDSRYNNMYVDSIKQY
Outline: (§1)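 HEK293, transient transfection 48 h (CMV-TLR7/8 WT or 2nd-LRR deletion + NFκB-luc); compound 6 h, 37 °C, 5% CO2; Steady Lite luciferase; quadruplicate dose-response; LEC = conc. ≥2× above assay SD.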

[3] = molecular target: T2, human TLR7 (wild type sequence) (Homo sapiens, UniProt Q9NYK1); assay: TLR7 cellular NFκB-luc reporter assay, wild type TLR7; assay type: cell-based; parameters: unit not given here; conditions: lowest effective concentration, wild type TLR7 (compounds 74 onward)
T2 construct: expressed in transfected cells; host or cells: HEK293
T2 sequence (Q9NYK1 27-1049): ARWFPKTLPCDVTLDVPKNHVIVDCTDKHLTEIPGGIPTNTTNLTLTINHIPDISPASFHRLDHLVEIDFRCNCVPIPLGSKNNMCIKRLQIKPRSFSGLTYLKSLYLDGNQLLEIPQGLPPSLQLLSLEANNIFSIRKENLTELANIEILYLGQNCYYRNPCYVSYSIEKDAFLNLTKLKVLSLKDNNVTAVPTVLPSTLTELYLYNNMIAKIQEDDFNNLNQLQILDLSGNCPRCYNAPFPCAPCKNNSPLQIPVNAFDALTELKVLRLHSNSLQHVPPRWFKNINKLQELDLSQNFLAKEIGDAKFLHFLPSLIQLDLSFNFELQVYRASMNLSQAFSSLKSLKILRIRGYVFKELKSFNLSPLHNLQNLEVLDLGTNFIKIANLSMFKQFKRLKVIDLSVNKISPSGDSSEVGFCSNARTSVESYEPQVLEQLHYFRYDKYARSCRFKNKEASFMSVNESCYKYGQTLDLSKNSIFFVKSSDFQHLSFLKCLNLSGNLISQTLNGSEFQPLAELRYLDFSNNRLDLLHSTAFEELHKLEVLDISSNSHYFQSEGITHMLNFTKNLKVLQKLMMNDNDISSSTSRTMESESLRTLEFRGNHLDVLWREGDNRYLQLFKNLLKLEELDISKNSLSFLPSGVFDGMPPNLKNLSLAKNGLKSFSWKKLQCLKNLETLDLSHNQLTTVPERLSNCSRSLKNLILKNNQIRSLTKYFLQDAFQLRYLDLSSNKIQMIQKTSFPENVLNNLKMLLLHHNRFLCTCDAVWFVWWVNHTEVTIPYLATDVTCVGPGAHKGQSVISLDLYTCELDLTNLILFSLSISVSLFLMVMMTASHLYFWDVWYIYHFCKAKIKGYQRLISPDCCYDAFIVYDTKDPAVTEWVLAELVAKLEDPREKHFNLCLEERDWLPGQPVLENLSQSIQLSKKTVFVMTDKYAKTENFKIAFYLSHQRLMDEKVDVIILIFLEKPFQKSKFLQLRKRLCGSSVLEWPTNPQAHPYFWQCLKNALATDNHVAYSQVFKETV
Outline: as §1

Row | Compound | EC50 [1] [nM] | TLR 8 wt LEC [2] | TLR 7 wt LEC [3]
1 | CCCCNc1nc(N)ncc1OCCCc1cccc(OC)c1 [Compound 146] | 707 | 2.300 | 1.230
2 | CCCCNc1nc(N)ncc1OCCCc1cc(OC)cc(OC)c1 [Compound 147] | 746 | 4.340 | 2.520
3 | CCCCNc1nc(N)ncc1OCCCc1cc(OC)ccc1OC [Compound 148] | 634 | 4.850 | 0.691
4 | CCCCNc1nc(N)ncc1OCCCc1ccccc1OC [Compound 149] | 703 | 5.850 | 2.080
5 | CCCCNc1nc(N)ncc1OCCCc1cccc(OC)c1OC [Compound 150] | 689 | 4.310 | 1.180
6 | CCCCNc1nc(N)ncc1OCCCc1ccc2c(c1)OCO2 [Compound 151] | 188 | 1.860 | 0.431
7 | CCCCNc1nc(N)ncc1OCCCc1ccc(Cl)cc1Cl [Compound 152] | 3350 | >25 | 5.410
8 | CCCC[C@@H](CO)Nc1nc(N)ncc1OCCCc1ccccc1 [Compound 154] | 3020 | 2.960 | 3.710
9 | CCCCNc1nc(N)ncc1OCc1nc(-c2ccccc2)no1 [Compound 155] | 3440 | 4.560 | 2.660
10 | CCCCNc1nc(N)ncc1OCc1noc(-c2ccccc2)n1 [Compound 156] | 697 | 2.060 | 0.828
11 | CCCCNc1nc(N)ncc1OCc1cc2ccccc2n(CCC(C)C)c1=O [Compound 158] | 3310 | >25 | 3.080
12 | CCCCNc1nc(N)ncc1OCc1cc2c(cn1)[nH]c1ccccc12 [Compound 159] | 18 | 1.080 | 0.159
13 | CCCCNc1nc(N)ncc1OCCCc1cc(OC)c(OC)c(OC)c1 [Compound 160] | 634 | 2.710 | 0.756
14 | CCCCNc1nc(N)ncc1OCCCc1cc(OC)c(OC)cc1OC [Compound 161] | 629 | 3.480 | 0.672
15 | CCCCNc1nc(N)ncc1OCCCc1ccc(OC)cc1OC [Compound 163] | 728 | 2.500 | 0.573
16 | CCCCNc1nc(N)ncc1OCCCc1ccc(OC)c(OC)c1OC [Compound 164] | 769 | 23.030 | 0.606
17 | CCC[C@@H](CCO)Nc1nc(N)ncc1OCCCc1ccccc1 [Compound 165] | 187 | 1.800 | 0.683
18 | CCCCNc1nc(N)ncc1OCc1cc2ccccc2cn1 [Compound 166] | 46 | 0.980 | 0.128
19 | CCCCNc1nc(N)ncc1OCCC(c1ccccc1)c1ccccc1 [Compound 167] | 764 | >25 | 1.200

Row | Compound | EC50 [1] [nM] | TLR 8 wt LEC [2] | TLR 7 wt LEC [3]
20 | CCCC(C)Nc1nc(N)nc(C)c1OCc1ccccc1 (stereo not drawn) [Compound 168] | 11700 | 14.900 | >25
21 | CCCCNc1nc(N)ncc1OCCCc1ccc(Cl)c(Cl)c1 [Compound 169] | 3130 | >25 | 5.110
22 | CCCCNc1nc(N)ncc1OCc1cc(C(=O)OCC)ccn1 [Compound 170] | 2630 | 1.750 | 0.319
23 | CCCCNc1nc(N)ncc1OCc1cc(OC)ccn1 [Compound 171] | 158 | 1.060 | 0.396
24 | CCCCNc1nc(N)ncc1OCc1cc(OC2Cc3ccccc3C2)c(OC)cn1 [Compound 172] | 45 | 2.000 | 0.187
25 | CCCCNc1nc(N)ncc1OCc1cc(OC2CCCC2)c(OC)cn1 [Compound 173] | 86 | 2.550 | 0.222
26 | CCCCNc1nc(N)ncc1OCc1cc(OC2CCOC2)c(OC)cn1 (stereo not drawn) [Compound 174] | 52 | 2.610 | 0.447
27 | CCCCNc1nc(N)ncc1OCc1cc(OCC2CC2)c(OC)cn1 [Compound 175] | 167 | 2.480 | 0.367
28 | CCCCNc1nc(N)ncc1OCc1cccc(C(N)=O)n1 [Compound 176] | 173 | 0.463 | 0.868
29 | CCCCNc1nc(N)ncc1OCCCc1ccncc1 [Compound 177] | 197 | 0.819 | 0.795
30 | CCCCNc1nc(N)ncc1OCc1ncccc1OC [Compound 179] | 21 | 0.142 | 0.078
31 | CCCCNc1nc(N)ncc1OCc1cc(C(F)(F)F)n(C)n1 [Compound 181] | 96 | 1.210 | 0.146
32 | CCCCNc1nc(N)ncc1OCc1nn(C)c2cc(OC)c(OC)cc12 [Compound 183] | 23 | 1.580 | 0.056
33 | CCCCNc1nc(N)ncc1OCc1cccc2cccnc12 [Compound 184] | 53 | 1.650 | 0.157
34 | CCCC(C)Nc1nc(N)ncc1OCc1ccc2ccccc2n1 (stereo not drawn) [Compound 185] | 488 | 2.340 | 0.743
35 | CCCC[C@@H](CCO)Nc1nc(N)ncc1OCc1ccc2ccccc2n1 [Compound 186] | 65 | 0.680 | 0.122
36 | CCC[C@@H](CCO)Nc1nc(N)ncc1OCc1ncc(C)c(OC)c1C [Compound 187] | 22 | 0.178 | 0.074
37 | CCC[C@@H](CCO)Nc1nc(N)ncc1OCc1ccc2ccccc2n1 [Compound 188] | 86 | 0.530 | 0.237
38 | CCCCCC(C)Nc1nc(N)ncc1OCc1ccc2ccccc2n1 (stereo not drawn) [Compound 189] | 17600 | >25 | 11.990
